Here are results for nine compounds from patent US8633164B2, “Antimicrobial peptides” (priority 2008, dated 2014).

≈ marks a conversion by molar mass, not a printed value. Residues, ends and D or L forms follow the SMILES beside them. Bounds are passed on as bounds.

The subject of one experiment is MRSA CUN 3792-99. It is filed as cell-based, methicillin-resistant Staphylococcus aureus. The protocol:
(§1) The antibacterial activity of the peptides was determined by microdilution susceptibility assays performed in Mueller-Hinton broth. Susceptibility testing was performed following the recommendations of the Clinical Standards Institute (CLSI, formerly NCCLS) [Standards, 2000]. Peptides (2 mg/ml in 4 mM HEPES, pH 7.2) were two-fold diluted in Mueller-Hinton Broth in 96-well microtitre plates to obtain concentrations from 512 to 0.25 μg/ml in a volume of 100 μl. Bacteria were grown on Mueller-Hinton agar plates for 1 to 3 days depending on the growth rate of the bacteria, suspended in 2 ml of 0.9% saline and adjusted to 10^8 CFU/ml. The bacterial suspension was diluted 100-fold in Mueller-Hinton broth, and 0.1 ml of this new dilution (10^5 CFU) was added to the peptide dilutions. The microtiter plates were incubated at 37° C. for 24 h. The minimal inhibitory concentration (MIC) of each peptide against a given bacterial strain was regarded as the minimal concentration of the peptide which prevents the growth of that organism 24 h after inoculation. The bactericidal effect of the peptides was determined, after 24 h incubation at 37° C., by plating 10 μl of the content of non-cloudy wells onto Mueller-Hinton agar plates. Plates were incubated at 37° C. for 1 to 5 days, and a viable count was performed. The minimal bactericidal concentration (MBC) of each peptide for a given bacterial strain was regarded as the minimal concentration of the peptide which kills 99.9% of the colony-forming units (CFU) present in the final inoculum.

The test system of another experiment is MRSA ATCC 43300. It is filed as cell-based, methicillin-resistant Staphylococcus aureus. The protocol:
as §1

The next experiment deals with LPS. The experiment can be described thus: Animal model of endotoxicity (LPS/galactosamine endotoxic shock, mortality). The experiment is classed as in vivo, mice. Conditions: mouse, LPS + galactosamine i.p., 150 μg peptide i.p. The text has this:
The wild-type LPS of E. coli ATCC 35218 and P. aeruginosa PAO1 were obtained from the aqueous phase of a water-phenol extract and purified by treatment with chaotropic agents and detergents.
Female ICR (CD-1) mice weighing 20-23 g were randomly distributed in experimental groups (n=16). Endotoxic shock was induced in the animals by coinoculation of LPS and galactosamine following the method of Galanos et al. Specifically, each animal received an intraperitoneal injection containing a mixture of 0.3 μg of LPS and 18 mg of galactosamine resuspended in 200 μl of endotoxin-free saline.
Immediately after LPS administration, animals were intraperitoneally inoculated with 150 μg of the test peptide resuspended in 150 μl of pyrogen-free saline containing 10% dimethylformamide as solubilizing agent. To facilitate the therapeutical action of the peptide, mice so treated were gently massaged at the site of inoculation for a few seconds. Animal mortality was monitored at 6 h and 12 h postinoculation and at daily intervals for 5 days.
In each independent experiment a group of animals received 150 μl of pyrogen-free saline containing 150 μg of polymyxin B, a lipopeptide with well known antiendotoxic properties, whereas another group was left untreated.
Results of animal mortality at all experimental time points were globally analyzed using the Kaplan-Meier survival analysis. When the survival plots were parallel, data were compared by the Log-Rank test, whereas for those plots that intersected the “Breslow-Gehan-Wilcoxon”. […]

Experiment [1] has as its system Stenotrophomonas Maltophilia 3998-00 CUN. It is filed as cell-based. The protocol: as §1
The test system of experiment [2] is Escherichia coli ATCC 25922. It is filed as cell-based. The protocol:
as §1

Experiment [3] concerns Acinetobacter baumanii ATCC 19606. The experiment is classed as cell-based. The protocol: as §1
The subject of experiment [4] is Staphylococcus aureus ATCC 25923. It is filed as cell-based. The protocol:
as §1

In a further experiment the test system is HIV-1 isolate. Description: Anti-HIV action: inhibition of virus replication in T-cell line PM1. The experiment is classed as cell-based. Conditions: 20 μg/ml peptide. The protocol: A T-cell line (PM1) was incubated with a HIV-1 isolate and the infected cells were cultivated in peptide-containing medium. After some days the number of viruses was determined as compared to untreated cells. The number of viruses is determined by the concentrations of the HIV-capsid in the supernatant. FIG. 8 depicts the anti-HIV action of the peptides Pep19-2, -4, 6, and 8 at peptide concentrations of 1, 5, 10, and 20 μg/ml.

One may read the MIC as the smallest concentration in the dilution series that meets the test's criterion for growth inhibition. The low end stands for inhibition by little substance, the high end for a need for much substance. The term MBC denotes the lowest tested concentration that kills the bacteria rather than only halting them. Lower therefore signals more potent killing.

On to `N=C(N)NCCC[C@H](NC(=O)[C@H](Cc1ccc(O)cc1)NC(=O)[C@H](CCCCN)NC(=O)[C@H](CCCCN)NC(=O)[C@H](CS)NC(=O)CN)C(=O)N[C@@H](CCCNC(=N)N)C(=O)N[C@@H](Cc1ccccc1)C(=O)N[C@@H](CCCNC(=N)N)C(=O)N[C@@H](Cc1c[nH]c2ccccc12)C(=O)N[C@@H](CCCCN)C(=O)N[C@@H](Cc1ccccc1)C(=O)N[C@@H](CCCCN)C(=O)NCC(=O)N[C@@H](CCCCN)C(=O)N[C@@H](Cc1ccccc1)C(=O)N[C@@H](Cc1c[nH]c2ccccc12)C(=O)N[C@@H](Cc1ccccc1)C(=O)N[C@@H](Cc1c[nH]c2ccccc12)C(=O)N[C@@H](CS)C(=O)NCC(N)=O` [Pep 19-2] (H-GCKKYRRFRWKFKGKFWFWCG-NH2), for which the MIC against MRSA CUN 3792-99 worked out at 1024 µg/mL (≈ 364 µM); with MRSA ATCC 43300 it was 128 µg/mL (≈ 45.5 µM); in experiment [1], 512 µg/mL (≈ 182 µM); in experiment [2], 128 µg/mL (≈ 45.5 µM); in experiment [3], 64 µg/mL (≈ 22.7 µM); in experiment [4], 128 µg/mL (≈ 45.5 µM). Also, in the experiment on LPS, the “Dead mice/number of mice, 24 h” value is reported as 0/10. For the same compound, the “Dead mice/number of mice, 48 h” value in the experiment with LPS was 0/10. Also, the “Dead mice/number of mice, 72 h” value in the experiment with LPS is 0/10. Moreover, the MBC in experiment [2] and in experiment [4] was 512 µg/mL (≈ 182 µM) in each case.

As for `N=C(N)NCCC[C@H](NC(=O)[C@H](Cc1ccc(O)cc1)NC(=O)[C@H](CCCCN)NC(=O)[C@H](CCCCN)NC(=O)CN)C(=O)N[C@@H](CCCNC(=N)N)C(=O)N[C@@H](Cc1ccccc1)C(=O)N[C@@H](CCCNC(=N)N)C(=O)N[C@@H](Cc1c[nH]c2ccccc12)C(=O)N[C@@H](CCCCN)C(=O)N[C@@H](Cc1ccccc1)C(=O)N[C@@H](CCCCN)C(=O)NCC(=O)N[C@@H](CCCCN)C(=O)N[C@@H](Cc1c[nH]c2ccccc12)C(=O)N[C@@H](Cc1ccccc1)C(=O)N[C@@H](Cc1c[nH]c2ccccc12)C(=O)N[C@@H](Cc1ccccc1)C(=O)NCC(N)=O` [Pep 19-4, GKKYRRFRWKFKGKWFWFG] (H-GKKYRRFRWKFKGKWFWFG-NH2), the minimal inhibitory concentration (MIC) in the experiment with MRSA CUN 3792-99 was 16 µg/mL (≈ 6.13 µM); against MRSA ATCC 43300, 16 µg/mL (≈ 6.13 µM); in experiment [1], 32 µg/mL (≈ 12.3 µM); in experiment [3] it was 16 µg/mL (≈ 6.13 µM); in experiment [4], 15.6 µg/mL (≈ 5.98 µM). The same compound gave an MBC in experiment [2] of 15.6 µg/mL (≈ 5.98 µM).

In the case of `N=C(N)NCCC[C@H](NC(=O)CNC(=O)[C@H](CCCNC(=N)N)NC(=O)[C@H](Cc1ccccc1)NC(=O)[C@H](CCCCN)NC(=O)[C@H](Cc1c[nH]c2ccccc12)NC(=O)[C@H](CCCNC(=N)N)NC(=O)[C@H](Cc1ccccc1)NC(=O)[C@H](CCCNC(=N)N)NC(=O)[C@H](CCCNC(=N)N)NC(=O)[C@H](Cc1ccc(O)cc1)NC(=O)[C@H](CCCCN)NC(=O)[C@H](CCCCN)NC(=O)CN)C(=O)N[C@@H](Cc1ccccc1)C(=O)N[C@@H](Cc1c[nH]c2ccccc12)C(=O)N[C@@H](Cc1ccccc1)C(=O)N[C@@H](Cc1c[nH]c2ccccc12)C(=O)NCC(N)=O` [Pep 19-5, GKKYRRFRWKFRGRFWFWG] (H-GKKYRRFRWKFRGRFWFWG-NH2), the MIC came to 16 µg/mL (≈ 6.01 µM) in the experiment on MRSA CUN 3792-99; 16 µg/mL (≈ 6.01 µM) against MRSA ATCC 43300; 64 µg/mL (≈ 24 µM) in experiment [1]; 15.6 µg/mL (≈ 5.86 µM) in experiment [2]; 16 µg/mL (≈ 6.01 µM) in experiment [3]; 15.6 µg/mL (≈ 5.86 µM) in experiment [4]. Besides, in the experiment with HIV-1 isolate, the “% inhibition of virus replication in a T-cell line” value was 99%. Further, the minimal bactericidal concentration (MBC) in experiment [2] came to 15.6 µg/mL (≈ 5.86 µM).

In the case of `CC(C)C[C@H](NC(=O)[C@H](Cc1c[nH]c2ccccc12)NC(=O)[C@H](CC(C)C)NC(=O)[C@H](CCCCN)NC(=O)[C@H](CCC(N)=O)NC(=O)[C@H](CCCCN)NC(=O)[C@H](CS)NC(=O)[C@H](CCCCN)NC(=O)[C@H](CC(C)C)NC(=O)[C@H](CCCCN)NC(=O)[C@H](Cc1ccccc1)NC(=O)[C@H](CCCNC(=N)N)NC(=O)[C@H](CCCNC(=N)N)NC(=O)[C@H](Cc1ccccc1)NC(=O)[C@H](CCCCN)NC(=O)[C@H](CCCCN)NC(=O)[C@H](CS)NC(=O)CN)C(=O)N[C@@H](Cc1c[nH]c2ccccc12)C(=O)N[C@@H](CS)C(=O)NCC(N)=O` [Pep 19-6] (H-GCKKFRRFKLKCKQKLWLWCG-NH2), the minimal inhibitory concentration (MIC) against MRSA CUN 3792-99 is 32 µg/mL (≈ 12 µM); against MRSA ATCC 43300, 64 µg/mL (≈ 24.1 µM); in experiment [1], 1024 µg/mL (≈ 385 µM); in experiment [2] it was >500 µg/mL; in experiment [3], 64 µg/mL (≈ 24.1 µM); in experiment [4], >500 µg/mL. The MBC in experiment [2] and in experiment [4] was >500 µg/mL throughout.

As for `N=C(N)NCCC[C@H](NC(=O)[C@H](Cc1ccc(O)cc1)NC(=O)[C@H](CCCCN)NC(=O)[C@H](CCCCN)NC(=O)CN)C(=O)N[C@@H](CCCNC(=N)N)C(=O)N[C@@H](Cc1ccccc1)C(=O)N[C@@H](Cc1c[nH]c2ccccc12)C(=O)N[C@@H](CCCCN)C(=O)N[C@@H](Cc1ccccc1)C(=O)N[C@@H](CCCCN)C(=O)NCC(=O)N[C@@H](CCCCN)C(=O)N[C@@H](Cc1c[nH]c2ccccc12)C(=O)N[C@@H](Cc1ccccc1)C(=O)N[C@@H](Cc1ccccc1)C(=O)N[C@@H](Cc1c[nH]c2ccccc12)C(=O)NCC(N)=O` [Pep 19-7, GKKYRRFWKFKGKWFFWG] (H-GKKYRRFWKFKGKWFFWG-NH2), the minimal inhibitory concentration (MIC) in the experiment with MRSA CUN 3792-99 was 16 µg/mL (≈ 6.53 µM); in the experiment on MRSA ATCC 43300 it was 16 µg/mL (≈ 6.53 µM); in experiment [1], 645 µg/mL (≈ 263 µM); in experiment [2], >500 µg/mL; in experiment [3], 16 µg/mL (≈ 6.53 µM); in experiment [4] it was >500 µg/mL. Also, the MBC in experiment [2] and in experiment [4] was >500 µg/mL in each case.

In the case of `N=C(N)NCCC[C@H](NC(=O)CNC(=O)[C@H](CCCCN)NC(=O)[C@H](Cc1ccccc1)NC(=O)[C@H](CCCCN)NC(=O)[C@H](Cc1c[nH]c2ccccc12)NC(=O)[C@H](CCCNC(=N)N)NC(=O)[C@H](Cc1ccccc1)NC(=O)[C@H](CCCCN)NC(=O)[C@H](CCCCN)NC(=O)[C@H](Cc1ccc(O)cc1)NC(=O)[C@H](CCCNC(=N)N)NC(=O)[C@H](CCCNC(=N)N)NC(=O)CN)C(=O)N[C@@H](Cc1c[nH]c2ccccc12)C(=O)N[C@@H](Cc1ccccc1)C(=O)N[C@@H](Cc1c[nH]c2ccccc12)C(=O)N[C@@H](Cc1ccccc1)C(=O)NCC(N)=O` [Pep 19-8, GRRYKKFRWKFKGRWFWFG] (H-GRRYKKFRWKFKGRWFWFG-NH2), the minimal inhibitory concentration (MIC) came out at 8 µg/mL (≈ 3.03 µM) against MRSA CUN 3792-99, 8 µg/mL (≈ 3.03 µM) against MRSA ATCC 43300, 32 µg/mL (≈ 12.1 µM) in experiment [1] and 16 µg/mL (≈ 6.07 µM) in experiment [3]. Moreover, the “% inhibition of virus replication in a T-cell line” value with HIV-1 isolate was determined as 99%.

As to “KKFRRLKWKYKGKFWFW (Synthetic antimicrobial peptide 1Pep17-1) [Pep 17-1]”, in the experiment with LPS, the “Dead mice/number of mice, 24 h” value is recorded as 7/11; the “Dead mice/number of mice, 48 h” value is listed as 7/11; the “Dead mice/number of mice, 72 h” value is reported as 8/11.

Consider “KKYRRFRWKFKGKFWFW (Synthetic antimicrobial peptide 1Pep17-2) [Pep 17-2]”, for which, in the experiment with LPS, the “Dead mice/number of mice, 24 h” value is 7/10; the “Dead mice/number of mice, 48 h” value was 7/10; the “Dead mice/number of mice, 72 h” value is 8/11.

As to polymyxin B [PMB, reference compound], in the experiment on LPS, the “Dead mice/number of mice, 24 h” value is 0/10; the “Dead mice/number of mice, 48 h” value is on record as 0/10; the “Dead mice/number of mice, 72 h” value is reported as 0/10.
